Data as given in a melting point compilation (Tetko et al.; mined from patent text by program, amines drawn as free bases though some values may be those of a salt).

melting point [°C] | SMILES
165 to 166 | O=C1CCn2c1ccc2C(=O)c1ccc(Cl)cc1
115 | Cc1nc2c(OCc3c(Cl)ccc(S(=O)(=O)N4CCC[C@H]4C(=O)NCCCNC(=O)c4ccc(C#N)cc4)c3Cl)cccn2c1Cl
240 | CCOc1cccc(CNC(=O)c2nc3scc(COCc4ccc(C(=O)O)cc4)c3c(=O)[nH]2)c1
91.2 | CCOCCn1c(CN2CCN(Cc3ccccc3)CC2C)nc2cccnc21 (stereo not given)
62 to 63 | CCC(=O)OCC(OC(=O)CC)C1OC(SC)C(OC(=O)CC)C1OC(=O)CC (stereo not given)
173 | O=S(=O)(Cc1ccc(Br)cc1)c1nc(-c2ccncc2)ns1
170 | O=C(CO/N=C/c1ccc([N+](=O)[O-])c(CO)c1)N1CCN(CC2CCCCC2)CC1
91 | CC[N+](CC)(CC)C1CC(=O)N1C(C(=O)OCc1ccc([N+](=O)[O-])cc1)=C([O-])CCSC (stereo not given)
66 to 67 | CCOC(=O)Cc1cccc(Cc2nc3cc(F)cc(F)c3s2)c1
200 to 201 | CC(C)c1nc(CO)c(CO)[nH]1
199 to 201 | COc1ccccc1N1CCN(c2nc3cccc4c3n2CCC4)CC1
122 | CC(C)(C)OC(=O)N1CCOS1(=O)=O
227 to 228 | COc1ccccc1S(=O)(=O)N(C)c1cccc2cc(C3=NCC(CC(N)=O)S3)[nH]c12 (stereo not given)
73 to 75 | COc1ccc(CCc2cc(OC)c(OC)c(OC)c2)cc1
183 to 185 | O=C(O)CCC(=O)c1ccc(Br)c(S(=O)(=O)Cl)c1
134 to 135 | COc1cc(CO)ccc1OCc1nc(-c2ccccc2)sc1C
181 to 183 | CN1CCC(=C2c3ccc(Cl)cc3C(=O)Cc3cccnc32)CC1
278 to 280 | CCOC(=O)C1C=Nc2c(cc(F)cc2[N+](=O)[O-])C1=O (stereo not given)
115 to 116 | S=C(Cc1ccccc1)N1CCOCC1
184 | Nc1cc(=O)n(Cc2ccccc2C(F)(F)F)[nH]1
184 to 186 | COc1ccc(Cn2c(=O)cc(-c3ccccn3)c3cnc(N4CCC[C@H]4CO)nc32)cc1Cl
194 | Cc1cc2cc(CN3CCC(CCCC(=O)N(C)C)CC3)cnc2cc1NC(=O)c1ccc(-c2ccc(F)cc2)cc1
236 | COC(=O)c1[nH]c2ncccc2c1-c1ccc(N)cc1
198 to 203 | CCOC(=O)c1cn(-c2csnn2)c2cc(F)c(F)cc2c1=O
207 to 209 | O=C(NC(=O)c1c(F)cccc1F)Nc1cc(Cl)c(Oc2ccc(S(=O)(=O)c3ccc(Cl)cc3)cc2)c(Cl)c1

melting point [°C] | SMILES
125 to 126 | COc1cc(-c2cc(C(C)C)nn2C)cc2oc(=O)c(C)c(C)c12
165 to 167 | Cc1nc2c(-c3cccc(N4C[C@@H](C)O[C@@H](C)C4)c3)cnn2c(N)c1-c1cccc(Cl)c1
142 | COC(=O)C1Oc2ccc(Cl)cc2C(c2ccccc2)(C2CCCCC2)O1 (stereo not given)
128 to 130 | CCCCCCCCOc1ccc(-c2ncc(O)cc2Cl)cc1
199 to 201 | Cc1cc(SC2=C(O)CC(CCc3ccc(O)cc3)(c3ccccc3)OC2=O)c(C(C)(C)C)cc1CO (stereo not given)
145 to 146 | CC1(C(O)C(c2cccc(Cl)c2)n2ccnc2)COC1 (stereo not given)
144 to 145 | CC1(c2cccc3c2CCc2ccccc2C3=O)OCCO1
158 to 159 | COc1cc2c(cc1OC)CCCC(C(=O)O)=C2
132 | CN(c1ccccc1)c1nc(Cl)nc(Cl)n1
118 to 120 | CCC(COC)NC(=O)C(Cc1ccc(OCc2ccccc2)cc1)NC(=O)C(CC(C)C)N(C)Cc1ccc(C(C)(C)C)cc1 (stereo not given)
135 to 136 | COc1cc(Nc2nccc(NCc3ccccc3)n2)cc(OC)c1OC
210 to 213 | CC12CCC(=O)C=C1CCC1C2=CCC2(C)C(=C=C(Cl)S(=O)c3ccccc3)CCC12 (stereo not given)
160 to 161 | CCOC(=O)[C@@H](O)[C@@H](NC(=O)c1ccccc1)c1ccccc1
241 to 243 | C#Cc1ccc2c(c1)N(c1ncnc3cc(OC)c(OC)cc13)CC2
224 to 226 | NC(=O)C1(N2C(=O)c3ccccc3C2=O)CCCCC1
194 to 197 | Cn1c(=O)c2conc2n(C2CCCCC2)c1=O
121 to 125 | CCOC(=O)C1=C(C)NC(c2cncs2)=NC1c1ccc(F)cc1Cl (stereo not given)
119 | Cc1cc2c(NCCc3cccc(C(F)(F)F)c3)ncnc2o1
105 to 106 | CSC(=Nc1ccccc1)Nc1ccccc1
282 to 284 | CS(=O)(=O)c1nc2c([nH]1)N(Cc1ccc(Cl)cc1)C1NCCN1C2=O (stereo not given)
113 to 114 | COc1cc(CO)cc(OC)c1OCc1nc(-c2ccccc2)oc1C
> 250 | Nc1nc(N)c2c(n1)NCC(CCc1ccc(C(=O)N[C@@H](CCC(=O)O)C(=O)O)cc1)C2 (stereo not given in full)
118 to 121 | COC(=O)c1cc(C(=O)OC)cc(N(C)C)c1
150 | CC(C)N=CN1c2ccccc2Cc2ccccc21
200 to 203 | COc1ccc(C(=O)Nc2nc3ccc(N)cc3c(NCc3cccs3)c2C#N)cc1

melting point [°C] | SMILES
218 to 220 | CC(=O)N1CCN(Cc2nc(-c3ccc4c(c3)Nc3ccccc3S4)cs2)CC1
170 to 173 | C/C(=C\C(=O)Nc1ccccc1C(=O)O)c1ccc(OC(F)F)c(OC(F)F)c1
131 to 133 | COc1ccc(C(CCN(C)C)c2ncc[nH]2)cc1 (stereo not given)
170 to 171 | COc1cccc(-c2cn(N=Cc3ccccc3)c(N)n2)c1
62 to 63 | CC12C=CC(C)(CC(=O)C1)O2
187 to 190 | CC1CC(=O)C=C(c2ccc(OCC(=O)O)c(Cl)c2Cl)C1 (stereo not given)
106 to 107 | CNc1ccnc(C2=Cc3ccccc3CC2)c1
205 to 210 | COc1cc(N)c(-c2ncn[nH]2)cc1OC
240 | O=C(OCC(OC(=O)c1ccccc1)c1nc2c(C(F)(F)F)cccc2c(O)c1C(=O)Nc1nccs1)c1ccccc1 (stereo not given)
241 to 242 | FC(F)(F)c1nnc2nc(-c3ccccc3)c3cc(Cl)ccc3n12
202 to 204 | Fc1ccc(Nc2ncnc3cnc(N4CCC(N5CCCC5)CC4)nc23)cc1Cl
163 to 164 | CC1(C)OC(=O)c2ccc(C(c3c(F)cc([N+](=O)[O-])cc3F)n3cncn3)cc21 (stereo not given)
162 to 163 | O=c1[nH]c(=O)n(CCCCCCl)c2ccccc12
285 to 290 | Cc1[nH]c(=O)c2c(ccc3nc(Nc4c(Cl)cccc4Cl)n(C)c32)c1CCN1CCOCC1
55 to 70 | Cc1ccsc1C(=COCCN1CCC[C@@H](C(=O)O)C1)c1sccc1C
149 to 151 | Cn1cc(-c2ncc(-c3ccc4cc(OC(Cc5ccccc5)C(=O)O)ccc4c3)o2)c2ccccc21 (stereo not given)
161 to 177 | COCC1CCCN1Cc1ccc(-c2cc3ncnc(Nc4ccc5[nH]ccc5c4)c3s2)cc1 (stereo not given)
211 to 212 | O=C(Nc1ccc(C(=O)N2Cc3cccn3Cc3ccccc32)cc1)c1cccnc1Oc1ccc(Cl)cc1
85 to 88 | COc1cc2ncc(OC3CC4CC3C(O)C4O)nc2cc1OC (stereo not given)
174 to 176 | CNC(=O)c1ccc2c(c1)CCOC2CCN1CCN(c2ccc(OC)cc2)CC1 (stereo not given)
182 to 183 | N#Cc1ccccc1Cn1cc(-c2ccnc(N)c2)n(-c2ccc(F)cc2)c1=O
231 to 233 | Nc1cc(-c2cc(=O)c(C(=O)O)cn2-c2ccc(F)cc2)ccc1O
131 to 132 | COc1cc(N)c(Cl)cc1C(=O)NCC1CCN(CCCCCOCc2ccc(Cl)cc2)CC1
154 to 156 | COC(=O)c1nc(-c2ccc(C)c(C)c2)cc(N)c1Cl
221 to 223 | C[C@H]1CN(c2c(F)c(N)c3c(=O)c(C(=O)O)cn(C4CC4)c3c2F)C[C@H]1CN (relative stereo)

melting point [°C] | SMILES
97 to 99 | COC(=O)NCCc1ccc(OCC(O)CNC(C)C)nc1 (stereo not given)
108 to 109 | CN1C(=S)Cc2ccccc21
78 to 80 | O=c1cccccc1N1CCN(Cc2ccccc2)CC1
120 to 122 | COc1ccc(CNC(=O)C23CC4CC(CC(C4)C2)C3)cc1OC
173 to 175 | Cc1nn(C(N)=O)c2c1C(=O)CC(C)(C)C2
158 to 159 | Cc1ccc(S(=O)(=O)NCCCCOc2ccc(-c3nc(-c4ccc(Cl)cc4)cs3)cc2)cc1
232 to 234 | COC(=O)Nc1nc(C)c(-c2nc3ccccc3c(=O)n2-c2ccc(C(C)=O)cc2)s1
169 | O=C(O)CCCC(=O)CNC(=O)c1csc(NC(=O)NCc2ccccc2)n1
143 to 144 | COc1cc(N)c2nccc(C)c2c1Oc1ccc(F)cc1
190 | COc1cc2ncnc(Nc3cccc(Br)c3)c2cc1OCCN1CC(=O)O[C@@H](C)C1
176 to 177 | Cc1cc(C(=O)N2Cc3cccn3Cc3ccccc32)ccc1C1=CC(=O)CCC1
118 to 120 | COc1ccc(-n2nc(N3CCN(C#N)CC3)c3ccccc32)cc1
137 to 138 | O=C(O)CCC(=O)c1cc(Br)cc(Br)c1
138 to 139 | CCCCn1c(=O)[nH]c(C(F)(F)F)c(Cl)c1=O
145 to 146 | COc1ccc(COC2CCCn3c2c(-c2ccccc2)c2cc(C)c(C)cc2c3=O)cc1 (stereo not given)
232 to 234 | Cc1c(N2C(=O)CCC2=O)nc(C)n2c1c(CCCl)c1ccccc12
> 300 | CS(=O)(=O)c1ccc(-c2cnn3c(O)ncnc23)cc1
111 to 113 | CCCCCCOC(=O)NCc1ccc2c(c1)C(=O)N(C1CCC(=O)NC1=O)C2=O (stereo not given)
84 to 86 | COC(=O)c1cnc(S)n1C1CCCC2CCCCC21 (stereo not given)
87 to 88 | C=C[C@H](Cc1ccccc1)NC(=O)OCc1ccccc1
123 | O=C(O)CCCc1ccccc1CC1C(=O)CC(=O)C1=O (stereo not given)
189 | CCNC(=O)Cc1cc(Oc2ccc(C(F)(F)F)cc2Cl)ccc1[N+](=O)[O-]
194 to 195 | O=C(C=c1sc2n(c1=O)Cc1ccccc1N=2)Oc1ccccc1
234 to 236 | Fc1cccc2c(Nc3ccncc3)noc12

SMILES | melting point [°C]
CC(C)OC(=O)c1ncn2c1CN(C)C(=O)c1cc(F)ccc1-2 | 243 to 244
